Paper PMC4320052, “High Level Expression of a Novel Family 3 Neutral β-Xylosidase from Humicola insolens Y1 with High Tolerance to D-Xylose” (PLoS ONE, 2015)

T1: Xyl3A (Mycothermus thermophilus, UniProt A0A0C5AKM5)
T1 construct: mature Xyl3A, signal peptide (residues 1-19) removed; precursor 777 residues; pPIC9 alpha-factor fusion, secreted from Pichia pastoris GS115
T1 sequence (A0A0C5AKM5 20-777): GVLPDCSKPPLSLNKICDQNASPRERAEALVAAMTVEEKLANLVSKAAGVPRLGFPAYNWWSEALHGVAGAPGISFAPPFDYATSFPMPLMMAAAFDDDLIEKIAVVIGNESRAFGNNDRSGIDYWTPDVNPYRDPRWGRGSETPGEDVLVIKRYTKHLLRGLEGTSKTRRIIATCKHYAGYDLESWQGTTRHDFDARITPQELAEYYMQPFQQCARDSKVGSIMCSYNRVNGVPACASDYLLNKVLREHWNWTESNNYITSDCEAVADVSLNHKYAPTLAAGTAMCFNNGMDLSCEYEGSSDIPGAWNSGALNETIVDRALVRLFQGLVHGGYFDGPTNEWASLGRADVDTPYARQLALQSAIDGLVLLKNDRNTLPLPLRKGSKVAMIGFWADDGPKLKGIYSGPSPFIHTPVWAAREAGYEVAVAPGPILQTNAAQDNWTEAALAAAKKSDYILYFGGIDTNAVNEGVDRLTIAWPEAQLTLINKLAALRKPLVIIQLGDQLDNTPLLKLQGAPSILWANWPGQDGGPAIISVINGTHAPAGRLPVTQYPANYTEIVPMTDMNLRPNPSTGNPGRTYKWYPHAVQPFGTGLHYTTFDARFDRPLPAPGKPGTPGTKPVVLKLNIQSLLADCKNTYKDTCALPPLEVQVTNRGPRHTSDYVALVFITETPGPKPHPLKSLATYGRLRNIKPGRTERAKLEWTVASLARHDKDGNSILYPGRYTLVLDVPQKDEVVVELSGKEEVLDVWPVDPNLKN


What was measured:
Xyl3A = target: T1, Xyl3A; experiment: pNPX hydrolysis at […] nm, Dixon plot; assay type: biochemical; settings: pNPX 0.75 and 1 mM, xylose 5-50 mM, pH 6.0, 60°C; competitive (general statement for β-xylosidases); Methods define Ki as xylose giving 50% inhibition
purified protein = substrate: O=[N+]([O-])c1ccc(O[C@@H]2OC[C@@H](O)[C@H](O)[C@H]2O)cc1; experiment: purified protein; assay type: biochemical, Mycothermus thermophilus; settings: pNPX 1-10 mM, 100 mM Na2HPO4-citric acid, pH 6.0, 60°C, 5 min

Ki (Xyl3A)	Molecule	Km (purified protein)
29 mM	OC1OC[C@@H](O)[C@H](O)[C@H]1O (some centres unmarked) [xylose]	
	Xyl3A (Mycothermus thermophilus) (protein, mature Xyl3A, signal peptide (residues 1-19) removed; precursor 777 residues; pPIC9 alpha-factor fusion, secreted from Pichia pastoris GS115) GVLPDCSKPPLSLNKICDQNASPRERAEALVAAMTVEEKLANLVSKAAGVPRLGFPAYNWWSEALHGVAGAPGISFAPPFDYATSFPMPLMMAAAFDDDLIEKIAVVIGNESRAFGNNDRSGIDYWTPDVNPYRDPRWGRGSETPGEDVLVIKRYTKHLLRGLEGTSKTRRIIATCKHYAGYDLESWQGTTRHDFDARITPQELAEYYMQPFQQCARDSKVGSIMCSYNRVNGVPACASDYLLNKVLREHWNWTESNNYITSDCEAVADVSLNHKYAPTLAAGTAMCFNNGMDLSCEYEGSSDIPGAWNSGALNETIVDRALVRLFQGLVHGGYFDGPTNEWASLGRADVDTPYARQLALQSAIDGLVLLKNDRNTLPLPLRKGSKVAMIGFWADDGPKLKGIYSGPSPFIHTPVWAAREAGYEVAVAPGPILQTNAAQDNWTEAALAAAKKSDYILYFGGIDTNAVNEGVDRLTIAWPEAQLTLINKLAALRKPLVIIQLGDQLDNTPLLKLQGAPSILWANWPGQDGGPAIISVINGTHAPAGRLPVTQYPANYTEIVPMTDMNLRPNPSTGNPGRTYKWYPHAVQPFGTGLHYTTFDARFDRPLPAPGKPGTPGTKPVVLKLNIQSLLADCKNTYKDTCALPPLEVQVTNRGPRHTSDYVALVFITETPGPKPHPLKSLATYGRLRNIKPGRTERAKLEWTVASLARHDKDGNSILYPGRYTLVLDVPQKDEVVVELSGKEEVLDVWPVDPNLKN	2.51 mM
